# Legend:
# CCRF-CEM = assay: NCI 60-cell drug screen, Leukemia CCRF-CEM; assay type: cell-based, human; settings: 1.00E−5 Molar
# MOLT-4 = assay: NCI 60-cell drug screen, Leukemia MOLT-4; assay type: cell-based, human; settings: 1.00E−5 Molar
# RPMI-8226 = assay: NCI 60-cell drug screen, Leukemia RPMI-8226; assay type: cell-based, human; settings: 1.00E−5 Molar
# SR = assay: NCI 60-cell drug screen, Leukemia SR; assay type: cell-based, human; settings: 1.00E−5 Molar
# A549/ATCC = assay: NCI 60-cell drug screen, Non-Small Cell Lung Cancer A549/ATCC; assay type: cell-based, human; settings: 1.00E−5 Molar
# HOP-92 = assay: NCI 60-cell drug screen, Non-Small Cell Lung Cancer HOP-92; assay type: cell-based, human; settings: 1.00E−5 Molar
# NCI-H226 = assay: NCI 60-cell drug screen, Non-Small Cell Lung Cancer NCI-H226; assay type: cell-based, human; settings: 1.00E−5 Molar
# NCI-H23 = assay: NCI 60-cell drug screen, Non-Small Cell Lung Cancer NCI-H23; assay type: cell-based, human; settings: 1.00E−5 Molar
# NCI-H522 = assay: NCI 60-cell drug screen, Non-Small Cell Lung Cancer NCI-H522; assay type: cell-based, human; settings: 1.00E−5 Molar
# HCC-2998 = assay: NCI 60-cell drug screen, Colon Cancer HCC-2998; assay type: cell-based, human; settings: 1.00E−5 Molar
# HCT-15 = assay: NCI 60-cell drug screen, Colon Cancer HCT-15; assay type: cell-based, human; settings: 1.00E−5 Molar
# KM12 = assay: NCI 60-cell drug screen, Colon Cancer KM12; assay type: cell-based, human; settings: 1.00E−5 Molar
# SF-295 = assay: NCI 60-cell drug screen, CNS Cancer SF-295; assay type: cell-based, human; settings: 1.00E−5 Molar
# SF-539 = assay: NCI 60-cell drug screen, CNS Cancer SF-539; assay type: cell-based, human; settings: 1.00E−5 Molar
# SNB-19 = assay: NCI 60-cell drug screen, CNS Cancer SNB-19; assay type: cell-based, human; settings: 1.00E−5 Molar
# U251 = assay: NCI 60-cell drug screen, CNS Cancer U251; assay type: cell-based, human; settings: 1.00E−5 Molar
# LOX IMVI = assay: NCI 60-cell drug screen, Melanoma LOX IMVI; assay type: cell-based, human; settings: 1.00E−5 Molar
# M14 = assay: NCI 60-cell drug screen, Melanoma M14; assay type: cell-based, human; settings: 1.00E−5 Molar
# MDA-MB-435 = assay: NCI 60-cell drug screen, Melanoma MDA-MB-435; assay type: cell-based, human; settings: 1.00E−5 Molar
# SK-MEL-2 = assay: NCI 60-cell drug screen, Melanoma SK-MEL-2; assay type: cell-based, human; settings: 1.00E−5 Molar
# SK-MEL-28 = assay: NCI 60-cell drug screen, Melanoma SK-MEL-28; assay type: cell-based, human; settings: 1.00E−5 Molar
# SK-MEL-5 = assay: NCI 60-cell drug screen, Melanoma SK-MEL-5; assay type: cell-based, human; settings: 1.00E−5 Molar
# UACC-257 = assay: NCI 60-cell drug screen, Melanoma UACC-257; assay type: cell-based, human; settings: 1.00E−5 Molar
# UACC-62 = assay: NCI 60-cell drug screen, Melanoma UACC-62; assay type: cell-based, human; settings: 1.00E−5 Molar
# IGROV1 = assay: NCI 60-cell drug screen, Ovarian Cancer IGROV1; assay type: cell-based, human; settings: 1.00E−5 Molar
# OVCAR-4 = assay: NCI 60-cell drug screen, Ovarian Cancer OVCAR-4; assay type: cell-based, human; settings: 1.00E−5 Molar
# NCI/ADR-RES = assay: NCI 60-cell drug screen, Ovarian Cancer NCI/ADR-RES; assay type: cell-based, human; settings: 1.00E−5 Molar
# Experimental: In brief, cellular protein levels were determined after 48 hours of drug exposure by sulforhodamine B colorimetry. Through the use of a time 0 cell control, the cell growth can be determined for each cell line thus allowing calculations of the 50% growth inhibitory concentration (GI50), the total growth inhibition (TGI), and the 50% lethal concentration (LC50). Comparison to plates not exposed to drug permits determination of concentration and times of exposure conferring 50% net growth inhibition (GI50), TGI, and 50% cell kill (LC50).
# From the data analysis it follows that approximately 95% of the actives (potent anticancer drugs) from the 60 cell line screen can be identified. By these criteria, 6 compounds (each with its certification number, refer to Table 2) of the invention were reported that having anticancer activity.
# The screening system in United State National Cancer Institute (NCI) consists of 60 kinds of different human cancer cells, which can be used to assay the growth-inhibiting ability or cell toxicity of a compound against various cancer and tumor at a certain concentration.
# NCI had selected 6 compounds f1-0, f1-1, f3-1, f1-11, f1-2 and f1-15 as test compounds (Table 2). Among these compounds, compound f1-1 was effective against renal cancer cell strain CAKI-1, and could achieve an inhibition effect on the growth of said cancer cell up to −8.01. Compound f1-11 could achieve inhibiting effects against leukemia cell line CCRF-CEM and RPMI-8226, up to −15.39 and −60.17, respectively. Compound f1-2 was effective against central nervous system cancer cell line SNB-75, and could achieve an effect of inhibiting said cancer cell growth up to −9.55. Compound f1-15 was effective against leukemia (blood cancer) cell line K-562, MOLT-4, and RPMI-8226, and could achieve effects of inhibiting said cancer cells growth up to −31.59, −2.90 and −13.69, respectively. Further, compound f1-15 was effective also against renal cancer cell line CAKI-1, and could achieve an effect of inhibiting said cancer cell growth up to −14.89.
# 786-0 = assay: NCI 60-cell drug screen, Renal Cancer 786-0; assay type: cell-based, human; settings: 1.00E−5 Molar
# ACHN = assay: NCI 60-cell drug screen, Renal Cancer ACHN; assay type: cell-based, human; settings: 1.00E−5 Molar
# RXF 393 = assay: NCI 60-cell drug screen, Renal Cancer RXF 393; assay type: cell-based, human; settings: 1.00E−5 Molar
# SN12C = assay: NCI 60-cell drug screen, Renal Cancer SN12C; assay type: cell-based, human; settings: 1.00E−5 Molar
# UO-31 = assay: NCI 60-cell drug screen, Renal Cancer UO-31; assay type: cell-based, human; settings: 1.00E−5 Molar
# DU-145 = assay: NCI 60-cell drug screen, Prostate Cancer DU-145; assay type: cell-based, human; settings: 1.00E−5 Molar
# MCF7 = assay: NCI 60-cell drug screen, Breast Cancer MCF7; assay type: cell-based, human; settings: 1.00E−5 Molar
# MDA-MB-231/ATCC = assay: NCI 60-cell drug screen, Breast Cancer MDA-MB-231/ATCC; assay type: cell-based, human; settings: 1.00E−5 Molar
# BT-549 = assay: NCI 60-cell drug screen, Breast Cancer BT-549; assay type: cell-based, human; settings: 1.00E−5 Molar
# T-47D = assay: NCI 60-cell drug screen, Breast Cancer T-47D; assay type: cell-based, human; settings: 1.00E−5 Molar
# GBM8401 = assay: MTT assay, GBM8401 tumor cell; settings: for Cell survival rate (%) GBM8401: concentration 10 μM, tumor cell
# GBM8901 = assay: MTT assay, GBM8901 tumor cell; settings: for Cell survival rate (%) GBM8901: concentration 10 μM, tumor cell
structure (smiles),measurement,setting,value
"O=C1c2ccccc2C(=O)c2c1ccc1nc(S)[nH]c21 [f1-0, 2-Mercapto-1(3)H-anthra[1,2-d]imidazole-6,11-dione]","Growth Percent, CCRF-CEM",CCRF-CEM,61.91%
same,"Growth Percent, MOLT-4",MOLT-4,108.60%
same,"Growth Percent, RPMI-8226",RPMI-8226,101.22%
same,"Growth Percent, SR",SR,124.87%
same,"Growth Percent, A549/ATCC",A549/ATCC,118.18%
same,"Growth Percent, HOP-92",HOP-92,65.48%
same,"Growth Percent, NCI-H226",NCI-H226,83.74%
same,"Growth Percent, NCI-H23",NCI-H23,113.34%
same,"Growth Percent, NCI-H522",NCI-H522,96.06%
same,"Growth Percent, HCC-2998",HCC-2998,113.65%
same,"Growth Percent, HCT-15",HCT-15,83.78%
same,"Growth Percent, KM12",KM12,101.59%
same,"Growth Percent, SF-295",SF-295,118.09%
same,"Growth Percent, SF-539",SF-539,91.35%
same,"Growth Percent, SNB-19",SNB-19,91.30%
same,"Growth Percent, U251",U251,88.79%
same,"Growth Percent, LOX IMVI",LOX IMVI,84.00%
same,"Growth Percent, M14",M14,101.06%
same,"Growth Percent, MDA-MB-435",MDA-MB-435,114.02%
same,"Growth Percent, SK-MEL-2",SK-MEL-2,134.35%
same,"Growth Percent, SK-MEL-28",SK-MEL-28,118.39%
same,"Growth Percent, SK-MEL-5",SK-MEL-5,86.66%
same,"Growth Percent, UACC-257",UACC-257,105.26%
same,"Growth Percent, UACC-62",UACC-62,84.17%
same,"Growth Percent, IGROV1",IGROV1,138.25%
same,"Growth Percent, OVCAR-4",OVCAR-4,91.57%
same,"Growth Percent, NCI/ADR-RES",NCI/ADR-RES,109.60%
same,"Growth Percent, 786-0",786-0,95.78%
same,"Growth Percent, ACHN",ACHN,96.23%
same,"Growth Percent, RXF 393",RXF 393,141.66%
same,"Growth Percent, SN12C",SN12C,87.98%
same,"Growth Percent, UO-31",UO-31,97.83%
same,"Growth Percent, DU-145",DU-145,99.28%
same,"Growth Percent, MCF7",MCF7,75.91%
same,"Growth Percent, MDA-MB-231/ATCC",MDA-MB-231/ATCC,108.18%
same,"Growth Percent, BT-549",BT-549,114.30%
same,"Growth Percent, T-47D",T-47D,81.86%
same,Cell survival rate (%) GBM8401,GBM8401,86 ± 25%
same,Cell survival rate (%) GBM8901,GBM8901,78 ± 13%
"O=C1c2ccccc2C(=O)c2c1ccc1nc3n(c21)CCS3 [f3-1, 2-(2-N-ethylthio)-1H-anthra[1,2-d]imidazole-6,11-dione]","Growth Percent, CCRF-CEM",CCRF-CEM,66.81%
same,"Growth Percent, MOLT-4",MOLT-4,58.39%
same,"Growth Percent, RPMI-8226",RPMI-8226,71.65%
same,"Growth Percent, SR",SR,60.62%
same,"Growth Percent, A549/ATCC",A549/ATCC,81.15%
same,"Growth Percent, HOP-92",HOP-92,88.67%
same,"Growth Percent, NCI-H226",NCI-H226,80.53%
same,"Growth Percent, NCI-H23",NCI-H23,84.29%
same,"Growth Percent, NCI-H522",NCI-H522,80.62%
same,"Growth Percent, HCC-2998",HCC-2998,94.76%
same,"Growth Percent, HCT-15",HCT-15,57.15%
same,"Growth Percent, KM12",KM12,84.88%
same,"Growth Percent, SF-295",SF-295,78.56%
same,"Growth Percent, SF-539",SF-539,74.06%
same,"Growth Percent, SNB-19",SNB-19,74.47%
same,"Growth Percent, U251",U251,72.48%
same,"Growth Percent, LOX IMVI",LOX IMVI,65.93%
same,"Growth Percent, M14",M14,78.50%
same,"Growth Percent, MDA-MB-435",MDA-MB-435,83.11%
same,"Growth Percent, SK-MEL-2",SK-MEL-2,99.88%
same,"Growth Percent, SK-MEL-28",SK-MEL-28,109.36%
same,"Growth Percent, SK-MEL-5",SK-MEL-5,65.88%
same,"Growth Percent, UACC-257",UACC-257,80.59%
same,"Growth Percent, UACC-62",UACC-62,73.06%
same,"Growth Percent, IGROV1",IGROV1,62.31%
same,"Growth Percent, OVCAR-4",OVCAR-4,89.29%
same,"Growth Percent, NCI/ADR-RES",NCI/ADR-RES,84.08%
same,"Growth Percent, 786-0",786-0,92.44%
same,"Growth Percent, ACHN",ACHN,59.35%
same,"Growth Percent, RXF 393",RXF 393,46.50%
same,"Growth Percent, SN12C",SN12C,74.93%
same,"Growth Percent, UO-31",UO-31,45.79%
same,"Growth Percent, DU-145",DU-145,68.84%
same,"Growth Percent, MCF7",MCF7,64.78%
same,"Growth Percent, MDA-MB-231/ATCC",MDA-MB-231/ATCC,94.00%
same,"Growth Percent, BT-549",BT-549,87.90%
same,"Growth Percent, T-47D",T-47D,73.06%
same,Cell survival rate (%) GBM8401,GBM8401,42 ± 16%
same,inhibitory effect against tumor cell GBM8401,GBM8401; survival rate less than 80%,exhibited inhibitory effect against tumor cell GBM8401
same,Cell survival rate (%) GBM8901,GBM8901,37 ± 4%
same,inhibitory effect against tumor cell GBM8901,GBM8901; survival rate less than 80%,exhibited inhibitory effect against tumor cell GBM8901

# — patent publication US8067454B2, “Thio-substituted Anthra [1, 2-d] imidazole- 6, 11-dione derivatives, preparation method and application thereof” (National Defense Medical Center, priority 2010, dated 2011)
